Values of other authors in patent US12661328B2, “Methods of treating anti-NMDAR-associated neuropsychiatric disorders” (Vanderbilt University, priority 2018, dated 2026).

Experiments:
[1] = system: γ-aminobutyric acid (GABA), benzodiazepine, dopamine, adrenergic, histamine, or glycine receptors
[2] = system: voltage-dependent calcium, sodium, or potassium channels
[3] = system: extrasynaptic NMDA receptors; settings: Xia et al., 2010

Structure (SMILES): CC12CC3CC(C)(C1)CC(N)(C3)C2 [Memantine, 1-amino-3,5-dimethyladamantane]
- affinity for NMDA receptors (NMDA receptors): low to moderate-affinity
- affinity for GABA, benzodiazepine, dopamine, adrenergic, histamine, or glycine receptors [1]: no affinity
- affinity for voltage-dependent calcium, sodium, or potassium channels [2]: no affinity
- concentration range of relatively specific inhibition of extrasynaptic NMDA receptors [3]: low micromolar range
